# According to PMC13091788 (NPJ Aging, 2026):
# Legend:
# [1] = Water solubility, roughly examined; type: physicochemical
# Protocol: Finally, we compared the water solubility of the three berberrubine forms. The solubility of three compounds, the reddish-black solid (quinoid-type berberrubine), the reddish-brown solid (berberrubine acetic acid salt), and the yellow solid (berberrubine acetic acid adduct), in water was roughly examined. […] On the other hand, the reddish-brown solid dissolved in about 30 mg in 1 mL of water.
# C2C12 myoblasts = assay: Oxygen consumption analysis of C2C12 cells (Seahorse); type: cell-based, mouse; details: C2C12, 30 μM, 24 h, vs solvent control
# Protocol: (§1) Murine myoblast C2C12 cells were used for various cellular experiments in this study. Two different sources of C2C12 cells were used depending on the experiment: C2C12 cells obtained from RIKEN BRC (RCB0987) were used for gene expression, mtDNA quantification, and mitochondrial morphology analysis; C2C12 cells from ATCC (CRL-1772) were used for OCR analysis. Cells were cultured in Dulbecco’s Modified Eagle Medium (DMEM; Sigma-Aldrich or Nacalai Tesque), supplemented with 10% FBS and 1% penicillin–streptomycin. Cells were maintained in a humidified incubator at 37°C with 5% CO2.
# To generate mMITOL-knockout C2C12 cells, CRISPR-Cas9 vectors were constructed. […]
# The oxygen consumption rate (OCR) of C2C12 myoblasts and H9c2 cardiomyocytes were measured using a Seahorse XFe24 Analyzer and the Seahorse XF Cell Mito Stress Test Kit (Agilent Technologies), as well as a Seahorse XF HS Mini Analyzer and the Seahorse XFp Cell Mito Stress Test Kit (Agilent Technologies), according to the manufacturer’s protocol. […] The assay was performed at 37 °C, and OCR was measured at baseline and after sequential injections of the following compounds: oligomycin (Oligo; 1 μM), FCCP (0.5 μM), and a mixture of rotenone and antimycin A (Rot/Anti; 0.5 μM each). […] Non-mitochondrial respiration was defined as the OCR measured after the injection of rotenone and antimycin A.
# [2] = tested on: MITOL and mitochondrial proteins in C2C12 myoblasts; assay: Western blot of mitochondrial proteins in C2C12 myoblasts; type: cell-based, mouse; details: 48 h; for levels of Tom20, Mfn2, HSP60 and ATP5a proteins / protein level of MITOL: C2C12, 5 μM or 10 μM
# Protocol: as §1
# (§2) For cellular experiments, berberine or quinoid-type berberrubine (Q-BRB) was dissolved in DMSO, and berberrubine acetic acid adduct (AcA-BRB) was dissolved in distilled H2O. Each compound was diluted in culture medium to the indicated final concentrations.
# Proteins in sample buffer were separated by SDS-PAGE and transferred to Immobilon-P PVDF membranes (IPVH00010, Millipore). Blots were probed with the indicated antibodies, and protein bands on the blot were visualized using Chemi-Lumi One L (07880-70, Nacalai Tesque) or Immobilon Western Chemiluminescent HRP Substrate (WBKLS0500, Millipore). Band images were captured using a LuminoGraph I imager (WSE-6100, ATTO). Relative band intensities were quantified using Fiji/ImageJ software. Unprocessed western blot images corresponding to the data presented in the main and supplementary figures are provided in Supplementary Figures 11–16.
# [3] = tested on: MITOL and Tom20 mRNA in C2C12 cells; assay: qRT-PCR analysis of C2C12 cells; type: cell-based, mouse; details: C2C12, 5 μM or 10 μM
# Protocol: as §1, §2
# Total RNA was extracted from C2C12 cells using an RNA extraction kit (RNeasy Mini Kit, Qiagen). After washing with PBS, cells were collected by trypsinization and centrifugation at 500 × g for 5 min, and the pellet was lysed according to the manufacturer’s instructions. The extracted RNA was reverse-transcribed into cDNA using a reverse transcription kit (ReverTra Ace, TOYOBO). Quantitative real-time PCR was performed using a qPCR master mix (KAPA SYBR FAST qPCR Master Mix (2X) Kit, KAPABIOSYSTEMS) and a thermal cycler (StepOnePlus, Applied Biosystems). Gene expression levels were normalized to GAPDH. Primer sets used for qRT-PCR are listed in Supplementary Table 1.
Compound,solubility ([1]; roughly examined) [mg/mL],"OCR: basal respiration, ATP synthesis-linked respiration and maximal respiration (C2C12 myoblasts)","levels of Tom20, Mfn2, HSP60 and ATP5a proteins [2]",protein level of MITOL [2],mRNA levels of MITOL and Tom20 [3],dissolution in 1000 mL of water [1],"MITOL expression (western blot) ([2]; C2C12, 10 μM, berberrubine used as quinoid-type form)","expression of other mitochondrial-associated proteins (Tom20, Mfn2, HSP60, ATP5a) ([2]; C2C12, 10 μM, quinoid-type form)","protein levels of OPA1, Fis1 and MFF ([2]; C2C12, Q-BRB or AcA-BRB 10 μM)"
"COc1ccc2cc3[n+](cc2c1O)CCc1cc2c(cc1-3)OCO2 [AcA-BRB, berberrubine acetic acid adduct]",≥ 1000,significantly increased,dose-dependent trend in elevating,significantly increased,increased,–,–,–,–
"COc1ccc2cc3n(cc-2c1=O)CCc1cc2c(cc1-3)OCO2 [Q-BRB, quinoid-type berberrubine]",–,significantly increased,dose-dependent trend in elevating,significantly increased,increased,not possible to observe any dissolution,–,–,–
COc1ccc2cc3[n+](cc2c1O)CCc1cc2c(cc1-3)OCO2 [berberrubine],–,–,–,–,–,did not dissolve,significantly upregulated,markedly increased,increased
